How the values were obtained:
[1] = system: cytosolic estrogen receptors; details: competitive receptor binding, relative to E2; cited from earlier work
[2] = system: glial fibrillary acidic protein (GFAP); assay: Ex.8 therapeutic HIE rat model: blood serum GFAP ELISA; format: in vivo; details: 10 mg/kg/day E4, PND14
Experimental: (§1) To study the therapeutic effect of estetrol, newborn rat pups were assigned to one of the following 14 groups at postnatal day 7 (FIG. 23(B)): Sham group (n=12), Vehicle (n=15), 5 mg/kg/day E4 (n=11), 10 mg/kg/day E4 (n=11), 5 mg/kg/day E4+1.6 mg/kg/day PROG (n=11), 10 mg/kg/day E4+1.6 mg/kg/day PROG (n=11), 5 mg/kg/day E4+16 mg/kg/day PROG (n=11), 10 mg/kg/day E4+16 mg/kg/day PROG (n=13), 5 mg/kg/day E4+136 ng//kg/day E2 (n=11), 10 mg/kg/day E4+136 ng/kg/day E2 (n=11), 5 mg/kg/day E4+1.6 mg/kg/day PROG+136 ng/kg/day E2 (n=12), 10 mg/kg/day E4+1.6 mg/kg/day PROG+136 ng/kg/day E2 (n=11), 5 mg/kg/day E4+16 mg/kg/day PROG+136 ng/kg/day E2 (n=11), 10 mg/kg/day E4+16 mg/kg/day PROG+136 ng/kg/day (n=12) groups. […] After surgery, the pups were returned to their dams and allowed to recover for 1 hour. The pups were then placed in a humidified hypoxic in vivo cabinet (CoyLab). Hypoxia was produced by the inhalation of 11%-8% of oxygen balanced by nitrogen at decreased concentration of oxygen for 20 minutes, followed by inhalation of 8% oxygen and 92% nitrogen at constant concentration for 35 minutes. All the manipulations were performed at 37° C. Upon retrieval from the hypoxia chamber the rat pups were injected ip once either by vehicle (vehicle group) or by in accordance to the group assignment. […]

[3] = system: vascular endothelial growth factor (VEGF); assay: Ex.3 neuroprotective HIE rat model: VEGF staining; format: in vivo
Experimental: The sections were heated in 10 mmol/L citrate buffer (pH 6.0) at 100° C. for 10 minutes. Endogenous peroxidase activity was blocked with 3% hydrogen peroxide for 10 minutes and after a second blocking with 5% normal goat serum, the sections were incubated with anti-doublecortin (DCX) antibody, diluted 1:1000 (rabbit polyclonal antibody; Abcam, Cambridge, UK) and anti-vascular endothelial growth factor (VEGF) antibody, diluted 1:100 (mouse monoclonal antibody; Abcam, Cambridge, UK) overnight at 4° C. After rinsing, Alexa Fluor® goat anti-rabbit, diluted 1:1000 and Alexa Fluor® goat anti-mouse, diluted 1:1000 (Invitrogen Inc., Ghent, Belgium) were added and sections were incubated 1 h at room temperature. Mounting medium containing 4′,6-diamidino-2-phenylindole (DAPI) for fluorescent studies was used (Vector Laboratories). Samples were analyzed with the aid of a microscope (Olympus Vanox AHBT3, Olympus), and the ImageJ software (NIH). The percentage of positively stained cells was quantified as a sum of positively stained either DCX or VEGF cells divided by the total number of DAPI positive cells expressed in percentage.
Newborn rat pups were assigned to one of the following 6 groups from postnatal day 4: Sham group (n=24), Vehicle group (n=14), E4 1 mg/kg/per day group (n=11), E4 5 mg/kg/per day group (n=14), E4 10 mg/kg/per day group (n=14), or E4 50 mg/kg/per day group (n=19). From postnatal day 4, rat pups were intraperitoneally injected either vehicle (Vehicle group) or E4 (1, 5, 10, or 50 mg/kg/per day in accordance to the E4 group assignment) or neither vehicle nor E4 (Sham group). At day 7, 30 minutes after last injection, animals were anesthetized with isoflurane (induction, 3.0%; maintenance, 1.5%), and the rat pups from Vehicle and E4 groups passed through surgery encompassing left common carotid artery double ligation and cut. After the procedure, the pups were returned to their dams and were allowed to recover for 1 hour. The pups were then placed in the humidified hypoxic in vivo cabinet (CoyLab, Grass Lake, Mich., USA). Hypoxia was produced by the inhalation of 11%-8% of oxygen balanced by nitrogen at decreased concentration of oxygen for 20 minutes, followed by inhalation of 8% oxygen and 92% nitrogen at constant concentration for 35 minutes. All the manipulations were performed at 37° C. The Sham group went through similar procedures without left common carotid artery ligation followed by hypoxia nor injection. Rat pups recovered with their dams and reared normally until being sacrificed at postnatal day 14.

[4] = system: Microtubule-associated protein 2 (MAP2); assay: Ex.8 therapeutic HIE rat model: MAP2 staining; format: in vivo
Experimental: as §1, with “(CoyLab).” for “(CoyLab). Hypoxia was produced by the inhalation of 11%-8% of oxygen balanced by nitrogen at decreased concentration of oxygen for 20 minutes, followed by inhalation of 8% oxygen and 92% nitrogen at constant concentration for 35 minutes. All the manipulations were performed at 37° C. Upon retrieval from the hypoxia chamber the rat pups were injected ip once either by vehicle (vehicle group) or by in accordance to the group assignment.”
The brain sections were processed for immunohistochemical detection of neuronal cytoskeletal disruption. […] Samples were analyzed with the aid of an image scanner (Nanozoomer Virtual Microscopy, Hamamatsu, Tokyo, Japan) and the ImageJ software (NIH, US). The positive areas in the ipsilateral and contralateral hemispheres were measured. The ratio of the MAP2 positive areas was calculated as the MAP2 positive area of the ipsilateral hemisphere divided by the MAP2 positive area of the contralateral hemisphere. […]

C[C@]12CC[C@@H]3c4ccc(O)cc4CC[C@H]3[C@@H]1[C@@H](O)[C@@H](O)[C@@H]2O [E4, 1,3,5(10)-estratrien-3,15α,16α,17β-tetrol]
values for cytosolic estrogen receptor binding [1]: 0.015
GFAP protein concentration in blood serum [2]: 10806.52 ± 1015.19 pg/mL
percentage of VEGF positively stained cells ([3]; 1 mg/kg E4 ip PND4-7 before HI, CA2/CA3): 34.1±6.855%
percentage of VEGF positively stained cells ([3]; 1 mg/kg E4 ip PND4-7 before HI, DG): 43.5±2.083%
percentage of VEGF positively stained cells ([3]; 5 mg/kg E4 ip PND4-7 before HI, DG): 46.0±4.361%
percentage of VEGF positively stained cells ([3]; 10 mg/kg E4 ip PND4-7 before HI, CA1): 37.4±7.645%
percentage of VEGF positively stained cells ([3]; 10 mg/kg E4 ip PND4-7 before HI, DG): 47.0±5.362%
percentage of VEGF positively stained cells ([3]; 10 mg/kg E4 ip PND4-7 before HI, cortex): 46.2±7.646%
percentage of VEGF positively stained cells ([3]; 50 mg/kg E4 ip PND4-7 before HI, DG): 46.0±4.465%
MAP-2 positive area ratio ([4]; 5 mg/kg/day E4): 0.98±0.02
MAP-2 positive area ratio ([4]; 10 mg/kg/day E4): 0.97±0.04

From patent US9808470B2, “Estrogenic components for use in the treatment of neurological disorders” (UNIVERSITE DE LIEGE, priority 2012, dated 2017)
